Measured values reported in ChEMBL document CHEMBL1201861, “Genomics of Drug Sensitity in Cancer screening data, Wellcome Trust Sanger Institute”.

Assays:
Assay in all cases: cells
SK-UT-1 = type: functional, cell-based, Homo sapiens; conditions: Homo sapiens, SK-UT-1;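 also: growth inhibition of SK-UT-1 cells, measured by a cell viability assay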
Description: SANGER: Inhibition of human SK-UT-1 cell growth in a cell viability assay.

MEG-01 = type: functional, cell-based, Homo sapiens; conditions: Homo sapiens, MEG-01;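 also: growth inhibition of MEG-01 cells, read out by a cell viability assay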
Description: SANGER: Inhibition of human MEG-01 cell growth in a cell viability assay.

HAL-01 = type: functional, cell-based, Homo sapiens; conditions: Homo sapiens, HAL-01;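 also: growth inhibition of human HAL-01 cells, read out with a cell viability assay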
Description: SANGER: Inhibition of human HAL-01 cell growth in a cell viability assay.

L-363 = type: functional, cell-based, Homo sapiens; conditions: Homo sapiens, L-363
ETK-1 = type: functional, cell-based, Homo sapiens; conditions: Homo sapiens, ETK-1;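 also: growth inhibition of human ETK-1 cells, read out with a cell viability assay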
Description: SANGER: Inhibition of human ETK-1 cell growth in a cell viability assay.

COR-L88 = type: functional, cell-based, Homo sapiens; conditions: Homo sapiens, COR-L88;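 also: growth inhibition of COR-L88 cells, read out with a cell viability assay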
Description: SANGER: Inhibition of human COR-L88 cell growth in a cell viability assay.

SK-NEP-1 = type: functional, cell-based, Homo sapiens; conditions: Homo sapiens, SK-NEP-1;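 also: growth inhibition of human SK-NEP-1 cells, read out by a cell viability assay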
Description: SANGER: Inhibition of human SK-NEP-1 cell growth in a cell viability assay.

LOX IMVI = type: functional, cell-based, Homo sapiens; conditions: Homo sapiens, LOX IMVI
Description: SANGER: Inhibition of human LOXIMVI cell growth in a cell viability assay.

A704 = type: functional, cell-based; conditions: Homo sapiens;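 also: growth inhibition of human A704 cells, read out with a cell viability assay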
Description: SANGER: Inhibition of human A704 cell growth in a cell viability assay.

OMC-1 = type: functional, cell-based, Homo sapiens; conditions: Homo sapiens, OMC-1;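 also: growth inhibition of the OMC-1 cell line, measured by a cell viability assay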
RCC10RGB = type: functional, cell-based, Homo sapiens; conditions: Homo sapiens, RCC10RGB;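 also: growth inhibition of human RCC10RGB cells, read out by a cell viability assay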
Description: SANGER: Inhibition of human RCC10RGB cell growth in a cell viability assay.

JAR = type: functional, cell-based, Homo sapiens; conditions: Homo sapiens, JAR;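 also: growth inhibition of human JAR cells determined with a cell viability assay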
Description: SANGER: Inhibition of human JAR cell growth in a cell viability assay.

BT-474 = type: functional, cell-based, Homo sapiens; conditions: Homo sapiens, BT-474
Description: SANGER: Inhibition of human BT-474 cell growth in a cell viability assay.

U-87 MG = type: functional, cell-based, Homo sapiens, U-87MG ATCC; conditions: Homo sapiens, U-87 MG;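 also: growth inhibition of the cells measured with a viability assay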
Description: SANGER: Inhibition of human U-87-MG cell growth in a cell viability assay.

SCC-15 = type: functional, cell-based, Homo sapiens; conditions: Homo sapiens, SCC-15;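 also: growth inhibition of SCC-15 cells, read out with a cell viability assay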
KP-N-YS = type: functional, cell-based, Homo sapiens; conditions: Homo sapiens, KP-N-YS;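 also: cell viability assay measuring inhibition of cell line growth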
Description: SANGER: Inhibition of human KP-N-YS cell growth in a cell viability assay.

DB = type: functional, cell-based, Homo sapiens; conditions: Homo sapiens, DB
Description: SANGER: Inhibition of human DB cell growth in a cell viability assay.

D-502MG = type: functional, cell-based, Homo sapiens; conditions: Homo sapiens, D-502MG
Description: SANGER: Inhibition of human D-502MG cell growth in a cell viability assay.

TE-6 = type: functional, cell-based, Homo sapiens; conditions: Homo sapiens, TE-6;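 also: growth inhibition of TE-6 cells, read out with a cell viability assay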
Description: SANGER: Inhibition of human TE-6 cell growth in a cell viability assay.

HT = type: functional, cell-based, Homo sapiens; conditions: Homo sapiens, HT
ML-2 = type: functional, cell-based, Homo sapiens; conditions: Homo sapiens, ML-2;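 also: growth inhibition of ML-2 cells, measured with a cell viability readout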
Description: SANGER: Inhibition of human ML-2 cell growth in a cell viability assay.

BE-13 = type: functional, cell-based, Homo sapiens; conditions: Homo sapiens, BE-13;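 also: growth inhibition of human BE-13 cells, measured with a cell viability assay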
Description: SANGER: Inhibition of human BE-13 cell growth in a cell viability assay.

EW-13 = type: functional, cell-based, Homo sapiens; conditions: Homo sapiens, EW-13; read-out: IC50;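 also: growth inhibition of EW-13 cells, read out with a cell viability assay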
Description: SANGER: Inhibition of human EW-13 cell growth in a cell viability assay.

COLO-829 = type: functional, cell-based, Homo sapiens; conditions: Homo sapiens, COLO-829
Description: SANGER: Inhibition of human COLO-829 cell growth in a cell viability assay.

DMS-114 = type: functional, cell-based, Homo sapiens; conditions: Homo sapiens, DMS-114
BB65-RCC = type: functional, cell-based, Homo sapiens; conditions: Homo sapiens, BB65-RCC;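 also: growth inhibition of the cell line, measured with a cell viability assay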
Description: SANGER: Inhibition of human BB65-RCC cell growth in a cell viability assay.

DJM-1 = type: functional, cell-based, Homo sapiens; conditions: Homo sapiens, DJM-1;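 also: growth inhibition of human DJM-1 cells, read out by a cell viability assay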
TE-1 = type: functional, cell-based, Homo sapiens; conditions: Homo sapiens, TE-1;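 also: growth inhibition of the human TE-1 cell line, read out with a cell viability assay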
GI-1 = type: functional, cell-based, Homo sapiens; conditions: Homo sapiens, GI-1;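 also: growth inhibition of human GI-1 cells, measured with a cell viability readout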
OCI-AML2 = type: functional, cell-based, Homo sapiens; conditions: Homo sapiens, OCI-AML2;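 also: growth inhibition of OCI-AML2 cells, read out with a cell viability assay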
NCI-H1395 = type: functional, cell-based, Homo sapiens; conditions: Homo sapiens, NCI-H1395;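 also: cell viability assay read-out quantifying reduced proliferation of human NCI-H1395 cells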
Description: SANGER: Inhibition of human NCI-H1395 cell growth in a cell viability assay.

LAN-6 = type: functional, cell-based, Homo sapiens; conditions: Homo sapiens, LAN-6;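 also: growth inhibition of LAN-6 cells, determined with a cell viability assay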
Description: SANGER: Inhibition of human LAN-6 cell growth in a cell viability assay.

NCI-H720 = type: functional, cell-based, Homo sapiens; conditions: Homo sapiens, NCI-H720;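 also: growth inhibition of human NCI-H720 cells determined by a cell viability assay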
Description: SANGER: Inhibition of human NCI-H720 cell growth in a cell viability assay.

J-RT3-T3-5 = type: functional, cell-based, Homo sapiens; conditions: Homo sapiens, J-RT3-T3-5;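 also: cell viability assay measuring growth inhibition of human J-RT3-T3-5 cells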
Description: SANGER: Inhibition of human J-RT3-T3-5 cell growth in a cell viability assay.

no-11 = type: functional, cell-based, Homo sapiens; conditions: Homo sapiens;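 also: growth inhibition of human NO-11 cells, read out with a cell viability assay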
Description: SANGER: Inhibition of human no-11 cell growth in a cell viability assay.

MZ2-MEL = type: functional, cell-based, Homo sapiens; conditions: Homo sapiens, MZ2-MEL;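 also: growth inhibition of MZ2-MEL cells read out with a cell viability assay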
Description: SANGER: Inhibition of human MZ2-MEL cell growth in a cell viability assay.

MOLT-16 = type: functional, cell-based, Homo sapiens; conditions: Homo sapiens, MOLT-16;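 also: growth inhibition of human MOLT-16 cells, read out with a cell viability assay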
Description: SANGER: Inhibition of human MOLT-16 cell growth in a cell viability assay.

IST-SL1 = type: functional, cell-based, Homo sapiens; conditions: Homo sapiens, IST-SL1;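 also: growth inhibition of human IST-SL1 cells, read out with a cell viability assay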
Description: SANGER: Inhibition of human IST-SL1 cell growth in a cell viability assay.

LB771-HNC = type: functional, cell-based; conditions: Homo sapiens;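 also: growth inhibition of LB771-HNC human cells, read out with a cell viability assay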
Description: SANGER: Inhibition of human LB771-HNC cell growth in a cell viability assay.

SW872 = type: functional, cell-based, Homo sapiens; conditions: Homo sapiens, SW872;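 also: growth inhibition of SW872 cells, read out by a viability assay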
Description: SANGER: Inhibition of human SW872 cell growth in a cell viability assay.

SNU1 = type: functional, cell-based, Homo sapiens; conditions: Homo sapiens, SNU1;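 also: growth inhibition of human NCI-SNU-1 cells, measured with a cell viability assay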
Description: SANGER: Inhibition of human NCI-SNU-1 cell growth in a cell viability assay.

HCC2218 = type: functional, cell-based, Homo sapiens; conditions: Homo sapiens, HCC2218;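 also: cell viability assay read-out, with IC50 given as the concentration that inhibits growth of the cell line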
Description: SANGER: Inhibition of human HCC2218 cell growth in a cell viability assay.

KU812 cell line = type: functional, cell-based, Homo sapiens; conditions: Homo sapiens, KU812;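 also: growth inhibition of KU812 cells, read out with a cell viability assay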
Description: SANGER: Inhibition of human KU812 cell growth in a cell viability assay.

MV4-11 = type: functional, cell-based, Homo sapiens, MV-4-11; conditions: Homo sapiens, MV4-11;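 also: cell viability readout measuring growth inhibition of human MV-4-11 cells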
Description: SANGER: Inhibition of human MV-4-11 cell growth in a cell viability assay.

EW-3 = type: functional, cell-based, Homo sapiens; conditions: Homo sapiens, EW-3;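 also: cell viability assay read-out, IC50 reflects inhibition of growth of the EW-3 cells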
Description: SANGER: Inhibition of human EW-3 cell growth in a cell viability assay.

BV-173 = type: functional, cell-based, Homo sapiens; conditions: Homo sapiens, BV-173
Description: SANGER: Inhibition of human BV-173 cell growth in a cell viability assay.

NKM-1 = type: functional, cell-based, Homo sapiens; conditions: Homo sapiens, NKM-1;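 also: growth inhibition of NKM-1 cells, read out with a cell viability assay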
Description: SANGER: Inhibition of human NKM-1 cell growth in a cell viability assay.

MFM-223 = type: functional, cell-based, Homo sapiens; conditions: Homo sapiens, MFM-223
Description: SANGER: Inhibition of human MFM-223 cell growth in a cell viability assay.

KE-37 = type: functional, cell-based, Homo sapiens; conditions: Homo sapiens, KE-37;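 also: growth inhibition of KE-37 cells, read out with a cell viability assay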
Description: SANGER: Inhibition of human KE-37 cell growth in a cell viability assay.

C[C@@H](Oc1cc(-c2cnn(C3CCNCC3)c2)cnc1N)c1c(Cl)ccc(F)c1Cl [CRIZOTINIB]
IC50 (SK-UT-1): > 2 µM | IC50 (MEG-01): 0.858 µM | IC50 (HAL-01): > 2 µM | IC50 (L-363): > 2 µM | IC50 (ETK-1): > 2 µM | IC50 (COR-L88): > 2 µM | IC50 (SK-NEP-1): > 2 µM | IC50 (LOX IMVI): > 2 µM | IC50 (A704): > 2 µM | IC50 (OMC-1): > 2 µM | IC50 (RCC10RGB): > 2 µM | IC50 (JAR): > 2 µM | IC50 (BT-474): > 2 µM | IC50 (U-87 MG): > 2 µM | IC50 (SCC-15): > 2 µM | IC50 (KP-N-YS): > 2 µM | IC50 (DB): > 2 µM | IC50 (D-502MG): > 2 µM | IC50 (TE-6): > 2 µM | IC50 (HT): > 2 µM | IC50 (ML-2): > 2 µM | IC50 (BE-13): > 2 µM | IC50 (EW-13): > 2 µM | IC50 (COLO-829): > 2 µM | IC50 (DMS-114): > 2 µM | IC50 (BB65-RCC): > 2 µM | IC50 (DJM-1): > 2 µM | IC50 (TE-1): > 2 µM | IC50 (GI-1): > 2 µM | IC50 (OCI-AML2): > 2 µM | IC50 (NCI-H1395): > 2 µM | IC50 (LAN-6): > 2 µM | IC50 (NCI-H720): > 2 µM | IC50 (J-RT3-T3-5): > 2 µM | IC50 (no-11): > 2 µM | IC50 (MZ2-MEL): > 2 µM | IC50 (MOLT-16): 1.96 µM | IC50 (IST-SL1): > 2 µM | IC50 (LB771-HNC): > 2 µM | IC50 (SW872): > 2 µM | IC50 (SNU1): > 2 µM | IC50 (HCC2218): > 2 µM | IC50 (KU812 cell line): > 2 µM | IC50 (MV4-11): > 2 µM | IC50 (EW-3): > 2 µM | IC50 (BV-173): 1.06 µM | IC50 (NKM-1): > 2 µM | IC50 (MFM-223): > 2 µM | IC50 (KE-37): > 2 µM
